Assay results from ChEMBL document CHEMBL4665846, “Piperlonguminine and Piperine Analogues as TrxR Inhibitors that Promote ROS and Autophagy and Regulate p38 and Akt/mTOR Signaling” (J Nat Prod, 2020).
Active and inactive are the calls of the source. The calls are words filed in the database; no cut-off is given here.

Legend:
Bel7402/5-FU [1] = experiment: Cytotoxicity against human BEL-7402/5-FU cells assessed as reduction in cell viability after 72 hrs by MTT assay; format: functional, cell-based
HepG2 = experiment: Cytotoxicity against human HepG2 cells assessed as reduction in cell viability after 72 hrs by MTT assay; format: functional, cell-based; conditions: HepG2, 72 h
HGC-27 [2] = experiment: Cytotoxicity against human HGC-27 cells assessed as reduction in cell viability after 72 hrs by MTT assay; format: functional, cell-based; conditions: HGC-27, 72 h
Bel7402/5-FU [3] = experiment: Induction of mitochondrial membrane potential loss in human BEL-7402/5-FU cells at 10 uM after 24 hrs by JC-1 staining based fluorescence microscopic method; format: functional, cell-based
Bel-7402 = experiment: Cytotoxicity against human Bel-7402 cells assessed as reduction in cell viability after 72 hrs by MTT assay; format: functional, cell-based; conditions: for IC50: Bel-7402, 72 h
[4] = biological target: T1, Thioredoxin reductase 1, cytoplasmic (Homo sapiens, UniProt Q16881); experiment: Inhibition of TrxR in human BEL-7402/5-FU cells by colorimetric assay; format: cell-based
T1 sequence (Q16881 whole entry): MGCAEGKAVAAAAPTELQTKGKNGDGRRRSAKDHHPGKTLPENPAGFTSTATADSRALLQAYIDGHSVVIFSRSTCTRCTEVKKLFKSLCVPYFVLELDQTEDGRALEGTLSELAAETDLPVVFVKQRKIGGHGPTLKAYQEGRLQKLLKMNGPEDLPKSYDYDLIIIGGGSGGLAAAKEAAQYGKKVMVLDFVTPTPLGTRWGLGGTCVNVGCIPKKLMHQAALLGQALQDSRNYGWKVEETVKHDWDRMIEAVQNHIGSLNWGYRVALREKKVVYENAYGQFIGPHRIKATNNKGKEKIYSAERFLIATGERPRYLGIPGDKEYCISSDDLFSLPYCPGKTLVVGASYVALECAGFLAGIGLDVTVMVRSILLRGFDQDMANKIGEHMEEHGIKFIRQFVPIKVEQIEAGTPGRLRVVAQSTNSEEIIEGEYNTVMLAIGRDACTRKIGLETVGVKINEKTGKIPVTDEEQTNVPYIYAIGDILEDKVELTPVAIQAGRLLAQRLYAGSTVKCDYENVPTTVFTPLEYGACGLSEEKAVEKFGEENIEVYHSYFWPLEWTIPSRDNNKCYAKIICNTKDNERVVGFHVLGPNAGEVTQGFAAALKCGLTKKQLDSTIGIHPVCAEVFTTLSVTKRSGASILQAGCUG

HCT-116 = experiment: Cytotoxicity against human HCT-116 cells assessed as reduction in cell viability after 72 hrs by MTT assay; format: functional, cell-based; conditions: HCT-116, 72 h
Bel7402/5-FU [5] = experiment: Induction of autophagy in human BEL-7402/5-FU cells expressing mRFP-eGFP-LC3 assessed as auto lysosomes at 2 uM after 24 hrs by confocal laser scanning microscopic method; format: functional, cell-based
[6] = biological target: T2, Serine/threonine-protein kinase AKT (Homo sapiens) (UniProt P31751+Q9Y243+P31749); experiment: Inhibition of AKT phosphorylation in human BEL-7402/5-FU cells at 2 uM incubated for 72 hrs by Western blot analysis; format: cell-based
[7] = biological target: Serine/threonine-protein kinase mTOR (Homo sapiens) (UniProt P42345); experiment: Inhibition of mTOR phosphorylation in human BEL-7402/5-FU cells at 2 uM incubated for 72 hrs by Western blot analysis; format: cell-based
Bel7402/5-FU [8] = experiment: Induction of autophagy in human BEL-7402/5-FU cells expressing mRFP-eGFP-LC3 assessed as autophagosomes at 2 uM after 24 hrs by confocal laser scanning microscopic method; format: functional, cell-based
[9] = biological target: T3, MAP kinase p38 (Homo sapiens) (UniProt O15264+Q15759+Q16539+P53778); experiment: Activation of p38 phosphorylation in human BEL-7402/5-FU cells at 2 uM incubated for 72 hrs by Western blot analysis; format: cell-based; conditions: filed as activator
[10] = Selectivity ratio of IC50 for cytotoxicity against human L02 cells to IC50 for cytotoxicity against human BEL-7402/5-FU cells
[11] = biological target: T3, MAP kinase p38 (Homo sapiens); experiment: Activation of p38 phosphorylation in human BEL-7402/5-FU cells incubated for 72 hrs by Western blot analysis; format: cell-based; conditions: filed as activator, dose microM 0.32-2, time 72.0 hrs
Bel7402/5-FU [12] = experiment: Induction of autophagy in human BEL-7402/5-FU cells assessed as up regulation of beclin-1 protein expression after 72 hrs by Western blot analysis; format: functional, cell-based; conditions: dose microM 0.32-2, time 72.0 hrs
Bel7402/5-FU [13] = experiment: Induction of autophagy in human BEL-7402/5-FU cells assessed as up regulation of LC3-2 protein expression after 72 hrs by Western blot analysis; format: functional, cell-based; conditions: dose microM 0.32-2, time 72.0 hrs
[14] = Selectivity ratio of IC50 for cytotoxicity against human L02 cells to IC50 for cytotoxicity against human Bel-7402 cells; format: toxicity, cell-based; conditions: L02 cells and Bel-7402 cells, read-out: Ratio IC50
Bel7402/5-FU [15] = experiment: Induction of autophagy in human BEL-7402/5-FU cells assessed as down regulation of LC3-1 protein expression after 72 hrs by Western blot analysis; format: functional, cell-based; conditions: dose microM 0.32-2, time 72.0 hrs
Bel7402/5-FU [16] = experiment: Induction of ROS generation in human BEL-7402/5-FU cells at 10 uM using H2O2 as substrate preincubated for 24 hrs followed by substrate addition and measured after 6 hrs by ROS-Glo assay relative to control; format: functional
Bel7402/5-FU [17] = experiment: Induction of autophagy in human BEL-7402/5-FU cells expressing mRFP-eGFP-LC3 assessed as autophagosomes at 0.8 to 2 uM after 24 hrs by confocal laser scanning microscopic method; format: functional, cell-based; conditions: dose microM 0.8-2, time 24.0 hrs
[18] = biological target: T2, Serine/threonine-protein kinase AKT (Homo sapiens); experiment: Inhibition of AKT phosphorylation in human BEL-7402/5-FU cells incubated for 72 hrs by Western blot analysis; format: cell-based; conditions: dose microM 0.32-2, time 72.0 hrs
[19] = biological target: T4, Thioredoxin reductase 1, cytoplasmic (Homo sapiens) (UniProt Q16881); experiment: Potency index, ratio of piperlongumine IC50 to test compound IC50 for inhibition of TrXr in human BEL-7402/5-FU cells; format: cell-based
T4 sequence (whole entry): T1 sequence (Q16881 whole entry)

HGC-27 [20] = experiment: Potency index, ratio of piperlongumine IC50 to test compound IC50 for cytotoxicity against human HGC-27 cells; format: functional
Bel7402/5-FU [21] = experiment: Induction of mitochondrial membrane potential loss in human BEL-7402/5-FU cells at 1 uM after 24 hrs by JC-1 staining based fluorescence microscopic method relative to piperlongumine; format: functional
Bel7402/5-FU [22] = experiment: Induction of autophagy in human BEL-7402/5-FU cells assessed as down regulation of P62 protein expression after 72 hrs by Western blot analysis; format: functional, cell-based; conditions: dose microM 0.32-2, time 72.0 hrs
Bel7402/5-FU [23] = experiment: Potency index, ratio of piperlongumine IC50 to test compound IC50 for cytotoxicity against human BEL-7402/5-FU cells; format: functional
Bel7402/5-FU [24] = experiment: Induction of autophagy in human BEL-7402/5-FU cells expressing mRFP-eGFP-LC3 assessed as auto lysosomes at 0.8 to 2 uM after 24 hrs by confocal laser scanning microscopic method; format: functional, cell-based; conditions: dose microM 0.8-2, time 24.0 hrs
[25] = biological target: Serine/threonine-protein kinase mTOR (Homo sapiens) (UniProt P42345); experiment: Inhibition of mTOR phosphorylation in human BEL-7402/5-FU cells incubated for 72 hrs by Western blot analysis; format: cell-based; conditions: dose microM 0.32-2, time 72.0 hrs

T2 sequence (P31749 whole entry, looked up): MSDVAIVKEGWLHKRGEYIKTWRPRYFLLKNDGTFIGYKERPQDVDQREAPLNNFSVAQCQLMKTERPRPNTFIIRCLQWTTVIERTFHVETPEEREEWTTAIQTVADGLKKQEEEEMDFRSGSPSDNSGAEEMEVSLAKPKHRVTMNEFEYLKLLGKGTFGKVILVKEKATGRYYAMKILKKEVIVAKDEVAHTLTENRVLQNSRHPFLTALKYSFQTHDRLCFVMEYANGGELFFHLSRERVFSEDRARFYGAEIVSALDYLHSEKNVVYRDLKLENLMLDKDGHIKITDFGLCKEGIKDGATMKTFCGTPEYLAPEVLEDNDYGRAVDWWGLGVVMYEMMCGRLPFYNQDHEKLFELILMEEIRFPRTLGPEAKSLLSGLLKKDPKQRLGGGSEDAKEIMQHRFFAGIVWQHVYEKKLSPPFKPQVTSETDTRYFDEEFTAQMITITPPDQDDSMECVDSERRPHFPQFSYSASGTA
T2 sequence (P31751 whole entry, looked up): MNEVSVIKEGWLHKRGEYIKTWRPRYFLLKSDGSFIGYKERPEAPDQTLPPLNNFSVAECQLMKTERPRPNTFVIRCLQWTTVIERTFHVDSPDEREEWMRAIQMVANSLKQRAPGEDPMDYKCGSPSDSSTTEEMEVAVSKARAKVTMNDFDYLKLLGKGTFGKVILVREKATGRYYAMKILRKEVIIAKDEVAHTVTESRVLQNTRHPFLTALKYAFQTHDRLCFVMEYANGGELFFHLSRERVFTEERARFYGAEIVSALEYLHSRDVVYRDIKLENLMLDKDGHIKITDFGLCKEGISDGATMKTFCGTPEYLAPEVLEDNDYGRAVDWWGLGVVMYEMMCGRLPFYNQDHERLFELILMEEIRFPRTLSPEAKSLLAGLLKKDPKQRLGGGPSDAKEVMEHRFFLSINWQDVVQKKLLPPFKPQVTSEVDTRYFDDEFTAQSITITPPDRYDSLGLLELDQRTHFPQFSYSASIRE
T2 sequence (Q9Y243 whole entry, looked up): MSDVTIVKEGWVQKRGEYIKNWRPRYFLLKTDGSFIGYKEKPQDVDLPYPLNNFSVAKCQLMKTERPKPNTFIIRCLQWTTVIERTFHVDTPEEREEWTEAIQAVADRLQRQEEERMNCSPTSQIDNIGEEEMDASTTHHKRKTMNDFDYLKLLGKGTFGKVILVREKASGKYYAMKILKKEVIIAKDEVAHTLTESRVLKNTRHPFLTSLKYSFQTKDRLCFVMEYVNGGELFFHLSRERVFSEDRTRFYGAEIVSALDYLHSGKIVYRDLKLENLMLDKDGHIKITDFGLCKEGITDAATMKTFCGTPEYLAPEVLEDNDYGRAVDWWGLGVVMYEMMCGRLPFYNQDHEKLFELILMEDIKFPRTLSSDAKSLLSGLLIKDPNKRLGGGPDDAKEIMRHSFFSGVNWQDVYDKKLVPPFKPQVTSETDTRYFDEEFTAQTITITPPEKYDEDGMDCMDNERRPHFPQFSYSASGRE

SMILES | IC50 (Bel7402/5-FU [1]) | IC50 (HepG2) | IC50 (HGC-27 [2]) | IC50 (Bel-7402) | IC50 (HCT-116) | further results
O=C1C=CCC/C1=C\C=C\c1ccc(F)cc1 | 1.9 µM | 2.9 µM | 2.3 µM | 1.8 µM | 2.2 µM | Activity (Bel7402/5-FU [3]): Active; IC50 [4]: 0.6 µM
O=C1C=CCC/C1=C\C=C\c1ccc(Cl)cc1 | 3.2 µM | 3.7 µM | 4.8 µM | 3.2 µM | 3.5 µM | –
O=C1C=CCC/C1=C\C(Br)=C\c1ccccc1 | > 10 µM | > 10 µM | > 10 µM | > 10 µM | > 10 µM | –
COc1ccc(/C=C/C=C2\CCC=CC2=O)cc1 | 1.7 µM | 2.4 µM | 3.2 µM | 1.4 µM | 2.1 µM | Activity (Bel7402/5-FU [3]): Active; IC50 [4]: 0.4 µM
O=C1C=CCC/C1=C\C=C\c1ccc([N+](=O)[O-])cc1 | 4.5 µM | 4.9 µM | 5.2 µM | 4.2 µM | 5 µM | –
COc1cc(/C=C/C(=O)N2CCC=CC2=O)cc(OC)c1OC [PIPLARTINE] | – | – | 8.1 µM | – | 6.9 µM | Activity (Bel7402/5-FU [5]): Active; inhibition [6]: Active; inhibition [7]: Active; Activity (Bel7402/5-FU [8]): Active; Activity [9]: Active
COc1ccccc1/C=C/C=C1\CCC=CC1=O | 2.5 µM | 5.8 µM | 3.1 µM | 2.6 µM | 2.8 µM | –
CC(=O)Oc1ccc(/C=C/C=C2\CCC=CC2=O)cc1 | 4.1 µM | 4.5 µM | 4.9 µM | 3.8 µM | 4.6 µM | –
O=C1C=CCC/C1=C\C=C\c1ccccc1[N+](=O)[O-] | 5.2 µM | 6.8 µM | 4.4 µM | 4.6 µM | 6.2 µM | –
COc1cc(/C=C/C=C2\CCC=CC2=O)ccc1O | 0.8 µM | 0.9 µM | 1.2 µM | 0.8 µM | 0.9 µM | Activity (Bel7402/5-FU [1]): Dose-dependent effect; Ratio IC50 [10]: 6; Activity [11]: Dose-dependent effect; Activity (Bel7402/5-FU [12]): Dose-dependent effect; Activity (Bel7402/5-FU [13]): Dose-dependent effect; Activity (Bel7402/5-FU [3]): Active; selectivity ratio [14]: 6; Activity (Bel7402/5-FU [15]): Dose-dependent effect; Activity (Bel7402/5-FU [16]): 50%; Activity (Bel-7402): Dose-dependent effect; Activity (Bel7402/5-FU [17]): Active; inhibition [18]: Dose-dependent effect; IC50 [4]: 0.2 µM; Ratio IC50 [19]: 9; Ratio IC50 (HGC-27 [20]): 7; fold change (FC) (Bel7402/5-FU [21]): 10; Activity (Bel7402/5-FU [22]): Dose-dependent effect; Ratio IC50 (Bel7402/5-FU [23]): 10; Activity (Bel7402/5-FU [24]): Active; inhibition [25]: Dose-dependent effect
O=C1C=CCC/C1=C\C=C\c1ccc(Br)cc1 | 4.3 µM | 6.1 µM | 4.5 µM | 3.6 µM | 5.2 µM | –
Cc1ccc(/C=C/C=C2\CCC=CC2=O)cc1 | 5.8 µM | 8.6 µM | 8.1 µM | 6.3 µM | 7.2 µM | –
CC(=C\c1ccccc1)/C=C1\CCC=CC1=O | 4.2 µM | 4.6 µM | 5.2 µM | 3.9 µM | 4.8 µM | –
O=C(/C=C/C=C/c1ccc2c(c1)OCO2)N1CCCCC1 [PIPERINE] | – | > 10 µM | – | > 10 µM | – | –
O=C1C=CCC/C1=C\C=C\c1ccccc1 | 4.2 µM | 7.1 µM | 4.5 µM | 4.2 µM | 5.4 µM | –
CN(C)c1ccc(/C=C/C=C2\CCC=CC2=O)cc1 | 1 µM | 1.1 µM | 1.5 µM | 0.9 µM | 1.2 µM | Activity (Bel7402/5-FU [3]): Active; IC50 [4]: 0.2 µM; Ratio IC50 [19]: 9
